Test results: US10881667B2, “Method and composition for treating epilepsy” (City University of Hong Kong, priority 2018, dated 2021)
“Also recorded” adds a separate entry of the source.

System: epilepsy model mice (intrahippocampal kainic acid)
Experiment: spontaneous recurrent seizures in kainic acid-induced epilepsy model mice, Racine scale accumulative scores
Format: in vivo, C57 mice
Conditions: YM022 100 nM, YF476 1 μM; for accumulative scores of spontaneous seizures / spontaneous seizures onset after drug intervention: adult male C57 mice, kainic acid model, i.p. injection, 10 μL (5 mice), 10 μL (9 mice), vs day before intervention; for seizure onsets after multiple injections: kainic acid model mice, multiple i.p. injections, 10 μL
Method: FIG. 1 is a series of line plots depicting the statistics of the accumulative scores of spontaneous seizures of epilepsy model mice before and after single or multiple drug interventions ([…], 1 μM, 10 μL). The 9 lines represent 9 epilepsy model mice of the experiment, and the black arrows indicate the time of drug interventions. Accumulative scores were recorded base on the quantity and severity of spontaneous seizures: 3=Racine scale stage-5 seizure; 2=Racine scale stage-4 seizure; 1=Racine scale stage-3 seizure; accumulative score is equal to sum of scores of seizures on daily basis.
FIG. 2 is a series of line plots depicting the statistics of the accumulative scores of spontaneous seizures of epilepsy model mice before and after single or multiple drug interventions (YM022, 100 nM, 10 μL). The 5 lines represent 5 epilepsy model mice of the experiment, and the black arrows indicate the time of drug interventions.
Adult male C57 mice were housed under standard conditions, with food and water available. For injection of kainic acid, mice were anesthetized with sodium pentobarbital (50 mg/kg, i.p.; Ceva Sante Animale Co., France), and atropine sulphate (0.05 mg/kg, s.c.) was administered to inhibit tracheal secretions. Kainic acid (0.3 mg/mL, 650 nL, Tocris), was stereotaxically injected into the right CA3 area of the hippocampus. Kainic acid was slowly injected over 60 s with a 2 μL microsyringe at the following stereotaxic coordinates: AP, −2.06; ML, −1.80; DV, −1.60, respectively. After injection, the needle of the syringe was maintained in situ for additional 5 min to limit reflux along the injection track. Directly after surgery, the mice were housed in clear plexiglass cages (one per cage). A special camera was placed diagonally above each cage for monitoring in both the light and dark phase. Exactly 2 weeks after kainic acid treatment, all videos were collected regularly, and three trained technicians blind to drug intervention viewed the videos. The seizure activities during 12-h epoch (00:00 a.m. to 12:00 p.m.) were rated with Racine scale (Electroencephalogr Clin Neurophysiol, 1972, 32(3): 281-294). Accumulative scores were recorded base on the quantity and severity of spontaneous seizures: 3=Racine scale stage-5 seizure; 2=Racine scale stage-4 seizure; 1=Racine scale stage-3 seizure; accumulative score is equal to sum of scores of seizures on daily basis.
The model of epilepsy induced in mice by kainic acid reproduces most of the clinical and neurophysiological features of human temporal lobe epilepsy. Unilateral intrahippocampal injection of kainic acid induced a limbic status epilepticus which may last for up to 5 hours. […]

Row | Structure (SMILES) | accumulative scores of spontaneous seizures / spontaneous seizures onset after drug intervention | seizure onsets after multiple injections
1 | Cc1cccc(NC(=O)N[C@@H]2N=C(c3ccccc3)c3ccccc3N(CC(=O)c3ccccc3C)C2=O)c1 [YM022] | significantly reduce; also recorded: significant reduction | very rare
2 | CNc1cccc(NC(=O)N[C@@H]2N=C(c3ccccn3)c3ccccc3N(CC(=O)C(C)(C)C)C2=O)c1 [YF476] | significantly reduce; also recorded: significant reduction | very rare
